# “And” between values parts separate entries of the source, which are not always exact repeats. Equal entries are not always repeated.
# Key:
# [1] = test system: cockroaches; assay: LD50 and LD10 determination for cockroaches (dose-response mortality, probit analysis); format: in vivo; conditions: for LD10 mg/insect / LD50 mg/insect: cockroaches, probit analysis
# Description: In this example, various mineral oils and alcohols were tested to determine, for cockroaches, the LD50 and LD10 for each.
# PD23 and PD28 mineral oils were obtained from Sonneborn LLC, Mahwah, N.J. The physical properties of these oils are shown in Table 11. Each mineral oil was tested to determine the LD50 and LD10 (Table 12).
# The tested alcohols were obtained from Sigma-Aldrich Corp., St. Louis, Mo. Each alcohol was tested to determine the LD50 and LD10 (Table 12).
# [2] = test system: German cockroaches; assay: Topical toxicity evaluation on adult German cockroaches, mortality (dead/moribund) at 24 hours; format: in vivo, Blattella germanica (German cockroach); conditions: for # dead at 24 h / Proportion dead at 24 h: amounts in label
# Description: Toxicity evaluations were performed on 7-14 day old adult male and female German cockroaches (SCJ Strain, S.C. Johnson & Son, Racine, Wis.). Approximately 12 cockroaches were transferred to individual 100×20 mm polystyrene Petri dishes and anesthetized with a 15-25 second exposure to carbon dioxide. The inside edge of each Petri dish was lightly coated with mineral oil plus petroleum jelly in a 1:3 (wt/wt) ratio to minimize escape. Anesthetized cockroaches were positioned with their ventral side up, and a 1 μl drop of the diluted test composition was applied to the area between the meso- and metathoracic legs using a Rainin L-10, 10 μl capacity pipette (Rainin Instrument, LLC, Oakland, Calif.). Five replications of 12 male cockroaches were done for each test composition. Separate tests were done using female cockroaches. Results were evaluated at 24 hours following treatment. Cockroaches were scored as either alive (dorsal side up, active movement when abdomen prodded with dissecting probe) or moribund/dead (dorsal side up and no movement when abdomen prodded or ventral side up and insect unable to right itself).
# The compositions comprising alcohol and/or mineral oil are described in Table 13.
# [3] = Table 18, Exxsol D95 mineral oil
# [4] = Table 3, male cockroaches, remainder acetone, per replicate
Molecule,LD10 mg/insect [1],LD50 mg/insect [1],"# dead at 24 h ([2]; Table 13, per replicate (# treated 10-16), listed as 1-butanol (0.8 mg))","Proportion dead at 24 h ([2]; Table 13, per replicate, listed as 1-butanol (0.8 mg))","# dead at 24 h ([2]; Table 14, composite data)","Proportion dead at 24 h ([2]; Table 14, composite data)",LD10 ([1]; as detailed in Example 9),"# dead at 24 h ([2]; Table 13, per replicate (# treated 10-16), listed as 1-propanol (0.45 mg))","Proportion dead at 24 h ([2]; Table 13, per replicate, listed as 1-propanol (0.45 mg))","# dead at 24 h [2, 3]","Proportion dead at 24 h [2, 3]",synergy with EXXSOL D95 ([2]; alone and in combination with Exxsol D95 mineral oil),"# dead at 24 h ([2]; Table 13, per replicate (# treated 10-16), listed as 2-butanol (0.8 mg))","Proportion dead at 24 h ([2]; Table 13, per replicate, listed as 2-butanol (0.8 mg))","Arcsine square root % dead [2, 4]","Proportion dead [2, 4]","Square root % dead [2, 4]","# dead ([2]; Table 3, male cockroaches, remainder acetone, per replicate (# tested 12-14))"
"CCCCO [Composition 1-butanol, 1-butanol]",0.877 mg/insect,1.018 mg/insect,0 (2×) and 1,0.000 (2×) and 0.100,1,0.029,–,–,–,–,–,–,–,–,–,–,–,–
"CCCO [Composition 1-propanol, 1-propanol]",0.472 mg/insect,0.557 mg/insect,–,–,1,0.028,0.472 mg/insect,1 and 0 (2×),0.083 and 0.000 (2×),1,0.028,significant synergy,–,–,–,–,–,–
"CCC(C)O (centres unmarked) [Composition 2-butanol, 2-butanol]",0.881 mg/insect,1.188 mg/insect,–,–,1,0.026,–,–,–,–,–,–,0 (2×) and 1,0.000 (2×) and 0.083,–,–,–,–
Hexylene glycol [Hexylene glycol (20%)],–,–,–,–,–,–,–,–,–,–,–,–,–,–,0,0,0,1 and 0 (2×) and 3

# Reference: patent US9005644B2, “Pesticidal compositions” (BASF Corporation, priority 2008, dated 2015)
